Series [1] is described as follows: Unbound fraction in plasma (rapid equilibrium dialysis), mouse. The series is classed as in vitro ADME. The settings on record: mice plasma, 0.3, 1, 3 μM, RED 5 h, read-out: fu,p. The method, then:
(§1) The unbound fractions of IDP-73152 in various matrices were measured according to the manufacturer’s instructions for the rapid equilibrium dialysis (RED) device (ThermoFisher Scientific, Waltham, MA, USA). Briefly, IDP-73152 was added to the plasma or the microsomal/hepatocyte incubation buffer from various species (i.e., mouse, rat, dog, and human for microsomal incubation; rat for hepatocyte incubation) to obtain final concentrations of the compound at 0.3, 1, and 3 μM. After the membrane insert was placed in the RED plate, the solution containing IDP-73152 was added (400 µL) to the sample chamber, and the dialysis buffer (600 μL) was added to the buffer chamber. The RED plate was sealed with parafilm and then incubated at 37 °C in the orbital shaker (Lab Companion, Daejeon, Korea) at 100 rpm for 5 h. After a 50 μL aliquot was aspirated from both the sample and buffer chambers, an equal volume of protein-free buffer or blank medium was replaced in the aspirated sample or buffer to render the matrices compositionally identical. The IDP-73152 concentration in the buffer/sample chambers (i.e., CBuffer Chamber and CSample Chamber) was determined by an assay. Thus, the fraction unbound was defined as:(2) % Fraction unbound=(CBuffer Chamber/CSample Chamber)×100%

Series [2] is described as follows: Blood partitioning (LC-MS/MS-based depletion method), dog. The settings on record: whole blood, dogs blood, 0.3, 1, 3 μM, read-out: BP (blood-to-plasma concentration ratio). The series is classed as in vitro ADME. How it is done: In this study, the partitioning of IDP-73152 in blood samples obtained from mice, rats, dogs, and humans was determined using the LC-MS/MS-based depletion method with slight modifications. DP-73152 was added to an aliquot (1 mL) of blank blood or plasma at a final concentration of 0.3, 1, or 3 μM. The mixture was incubated at 37 °C in a water bath for 60 min. After the incubation, the plasma was separated by centrifugation of the blood samples for 5 min at 10,000× g/4 °C and stored at -80 °C until analysis. The blood-to-plasma concentration ratio (BP) was calculated using the equation:(3) BP=[…], where […] is the concentration of the compound at the corresponding blood concentration in the plasma, and CPL is the concentration from the plasma sample separated from the incubated blood.

A short description of series [3]: Blood stability in rat blood (CLblood). The series is classed as in vitro ADME. The method, then: In contrast, however, the compound was unstable in the rat blood and plasma. […] The blood containing IDP-73152 was incubated at 37 °C in a water bath, and aliquots (50 μL) were collected from the mixture at 0, 10, 30, 60, 120, and 240 min. The samples were centrifuged for 5 min at 10,000× g/4 °C, and the plasma was collected/stored at -80 °C until analysis. For the estimation of the clearance in the blood (CLblood), in rats, the disappearance of IDP-73152 in the blood was assumed to be mediated by first-order kinetics. […]×total volume of the blood×BP ) to calculate CLblood.

Series [4] relates to methicilin-resistant Staphylococus aureus. The conditions noted are these: infected mice, twice-a-day dosing; cited from earlier work.
The subject of the next series is hepatic CYP3A. Kind of series: Preliminary studies of metabolic pathway. The series is classed as in vitro ADME.
The nature of series [5]: Unbound fraction in plasma (rapid equilibrium dialysis), dog. It counts as in vitro ADME. The conditions noted are these: dogs plasma, 0.3, 1, 3 μM, RED 5 h, read-out: fu,p. How it is done:
as §1

On the set-up of series [6]: method as in PMID 31440032. The conditions noted are these: cited from earlier work; for Observed AUCinf / Observed Cmax: humans, fasting.

Where two headings read alike, the source gives them in different places.

For `CC(C)(C)[C@H](NC(=O)[C@H](CC1CCCC1)CN(O)C=O)C(=O)N1CCC(NCc2cc(F)c(F)cc2F)CC1` [IDP-73152], the figures for the fraction unbound at 5 h in series [1] and in series [5] were 0.0562 ± 0.0087 and 0.0547 ± 0.0053, respectively. In addition, in series [2], the blood plasma ratio at 60 min was determined as 1.45 ± 0.11. This compound returned a CLblood in series [3] (fresh whole blood from rats, 1 μM, 37 °C) of 0.717 ± 0.383 mL/min/kg. For the same compound, the “contribution of CLblood to the CLp” value in series [3] (rats) was found to be 2.15%. The “ED50 (oral dose at which the survival rate was 50%)” value in series [4] is recorded as 16.6 mg/kg. Besides, the “primary metabolic pathway” value with hepatic CYP3A is given as “mediated by hepatic CYP3A”. In addition, the “adverse effects” value in series [6] (human subjects, single oral dose of 40–1280 mg) is on record as “without clinically significant adverse effects”. In addition, the “Observed AUCinf” value in series [6] (single oral 640 mg) was 43400 ± 4470 ng·h/mL; in series [6] (single oral 1280 mg), 77400 ± 15400 ng·h/mL. Moreover, the “Observed Cmax” value in series [6] (single oral 640 mg) is 8920 ± 1170 ng/mL; in series [6] (single oral 1280 mg), 13200 ± 2500 ng/mL.

The values above are taken from paper PMC9227536, “Prediction of Pharmacokinetics of IDP-73152 in Humans Using Physiologically-Based Pharmacokinetics” (Pharmaceutics, 2022).
